According to patent US7935687B2, “Methods for treating spinal muscular atrophy using tetracycline compounds” (Paratek Pharmaceuticals, Inc., priority 2007, dated 2011):

Key:
[1] = tested on: E. coli (EC D1-209); assay: Antibacterial MIC, gram negative; format: cell-based; settings: CLSI methodology, 35° C., 18-24 hours; for MIC: Escherichia coli
[2] = tested on: SMN2 mRNA; assay: In vitro cell-free splicing assay for inclusion of exon 7; format: biochemical; settings: HeLa cell nuclear extract, 30° C., 3 hours
Procedure: The following example illustrates how tetracycline compound of the invention are active in an in vitro cell-free assay for the inclusion of exon 7 in […] mRNA. SMN1 and SMN2 pre-mRNA were prepared by in vitro transcription using T7 RNA polymerase of minigene templates that include exon 6, a truncated portion of intron 6, exon 7, intron 7 and a portion of exon 8 in the presence of ^32P-UTP. Labeled RNA was purified on a denaturing polyacrylamide gel followed by phenol extraction and ethanol precipitation of the RNA.
In vitro cell-free splicing of SMN1 and SMN2 transcripts was carried out in a 10 μl reaction volume at 30° C. for 3 hours. The reactions contained 10 fmol of labeled pre-mRNA, 30% (3 VI) HeLa cell nuclear extract (in 20 mM HEPES, pH 7.4, 20% (v/v) glycerol, 0.1M KC1, 0.2 mM EDTA), 1.3% (w/v) polyvinyl alcohol, 1.56 mM MgCl2, 32 mM HEPES, pH 7.4, 0.5 mM ATP, 20 mM creatine phosphate and either 2 μl of test compound (in 20 mM HEPES, pH 7.4, 0.1M KC1, 0.2 mM EDTA) or buffer alone. Following incubation, 200 μl of a solution containing 0.3M NaAc and 0.2% SDS was added to the reaction. Proteins were removed by extraction with an equal volume of phenol and RNA was precipitated with 2.5 volumes of ethanol. RNA was resuspended in formamide sample buffer and separated on a 9% urea-denaturing polyacrylamide gel. Quantitation of splicing was based on phosphorimage analysis (Fujix BAS2000 or Fujifilm FLA-5100). In this assay, percentage exon 7 inclusion averages 12% for the unmutated SMN1 mRNA and 4% for the SMN2 mRNA.
The in vitro activities for exon 7 splicing are expressed as the Emax (the maximum percentage exon 7 inclusion observed) and Cmax (the lowest compound concentration at which the maximum inclusion occurs in μM). For Emax, percentage inclusion values of less than 10% are indicated by “*”, values of 10-20% are indicated by “**”, and values greater than 20% are indicated by “***”. For Cmax data, concentrations of greater than 40 μM are indicated by “*”, concentrations between 40 and 10 μM are represented by “**” and concentrations of less than 10 μM are represented by “***”.

[3] = tested on: S. aureus (SA RN450); assay: Antibacterial MIC, gram positive; format: cell-based; settings: CLSI methodology, 35° C., 18-24 hours; for MIC: Staphylococcus aureus

Row | Structure (SMILES) | MIC Gram Negative (EC D1-209) [1] | Cmax (lowest compound concentration at which the maximum exon 7 inclusion occurs) [2] | Emax (maximum percentage exon 7 inclusion observed) [2] | MIC Gram Positive (SA RN450) [3] | MIC [1] [µg/mL] | MIC [3] [µg/mL]
1 | CN(C)C1C(O)=C(C(N)=O)C(=O)C2(O)C(O)=C3C(=O)c4c(O)ccc(-c5cccc(C(=O)NCc6ccco6)c5)c4CC3CC12 (stereo not drawn) [Y] | * (weak antibacterial activity (greater than about 8 μg/mL)) | * (concentrations of greater than 40 μM) | ** (values of 10-20%) | *** (Good antibacterial activity (e.g., less than about 4 μg/mL)) | – | –
2 | CN(C)C1C(O)=C(C(N)=O)C(=O)C2(O)C(O)=C3C(=O)c4c(O)ccc(-c5ccc(NC(=O)CNC(C)(C)C)cc5)c4CC3CC12 (stereo not drawn) [AF] | *** (Good antibacterial activity (e.g., less than about 4 μg/mL)) | *** (concentrations of less than 10 μM) | * (percentage inclusion values of less than 10%) | *** (Good antibacterial activity (e.g., less than about 4 μg/mL)) | – | –
3 | CN(C)CC(=O)Nc1cccc(-c2ccc(O)c3c2C[C@H]2C[C@H]4[C@H](N(C)C)C(O)=C(C(N)=O)C(=O)[C@@]4(O)C(O)=C2C3=O)c1 [Compound K, (4S,4aS,5aR,12aS)-4-Dimethylamino-7-[3-(2-dimethylamino-acetylamino)-phenyl]-3,10,12,12a-tetrahydroxy-1,11-dioxo-1,4,4a,5,5a,6,11,12a-octahydro-naphthacene-2-carboxylic Acid Amide] | – | * (concentrations of greater than 40 μM) | * (percentage inclusion values of less than 10%) | – | > 8 | < 4
4 | CN(C)C1C(O)=C(C(N)=O)C(=O)C2(O)C(O)=C3C(=O)c4c(O)ccc(-c5cccc(C(=O)NCCN6CCCCC6)c5)c4CC3CC12 (stereo not drawn) [U] | ** (modest antibacterial activity (between about 4 and 8 μg/mL)) | ** (concentrations between 40 and 10 μM) | ** (values of 10-20%) | *** (Good antibacterial activity (e.g., less than about 4 μg/mL)) | – | –
5 | CN(Cc1cccnc1)Cc1cccc(-c2ccc(O)c3c2CC2CC4C(N(C)C)C(O)=C(C(N)=O)C(=O)C4(O)C(O)=C2C3=O)c1 (stereo not drawn) [BJ] | * (weak antibacterial activity (greater than about 8 μg/mL)) | *** (concentrations of less than 10 μM) | ** (values of 10-20%) | *** (Good antibacterial activity (e.g., less than about 4 μg/mL)) | – | –
6 | CN(C)CCCCNC(=O)c1cccc(-c2ccc(O)c3c2CC2CC4C(N(C)C)C(O)=C(C(N)=O)C(=O)C4(O)C(O)=C2C3=O)c1 (stereo not drawn) [CL] | * (weak antibacterial activity (greater than about 8 μg/mL)) | ** (concentrations between 40 and 10 μM) | *** (values greater than 20%) | ** (modest antibacterial activity (between about 4 and 8 μg/mL)) | – | –
7 | CN(C)CCCCNCc1ccc(O)c2c1C[C@H]1C[C@H]3[C@H](N(C)C)C(O)=C(C(N)=O)C(=O)[C@@]3(O)C(O)=C1C2=O [Compound CN, (4S,4aS,5aR,12aS)-4-Dimethylamino-7-[(4-dimethylamino-butylamino)-methyl]-3,10,12,12a-tetrahydroxy-1,11-dioxo-1,4,4a,5,5a,6,11,12a-octahydro-naphthacene-2-carboxylic Acid Amide] | – | *** (concentrations of less than 10 μM) | ** (values of 10-20%) | – | > 8 | > 8
8 | CN(C)C1C(O)=C(C(N)=O)C(=O)C2(O)C(O)=C3C(=O)c4c(O)ccc(C(=O)CNc5cccnc5)c4CC3CC12 (stereo not drawn) [CB] | * (weak antibacterial activity (greater than about 8 μg/mL)) | ** (concentrations between 40 and 10 μM) | ** (values of 10-20%) | * (weak antibacterial activity (greater than about 8 μg/mL)) | – | –
9 | CN(C)C1C(O)=C(C(N)=O)C(=O)C2(O)C(O)=C3C(=O)c4c(O)ccc(-c5ccc(CN6CCOCC6)o5)c4CC3CC12 (stereo not drawn) [AX] | ** (modest antibacterial activity (between about 4 and 8 μg/mL)) | *** (concentrations of less than 10 μM) | ** (values of 10-20%) | *** (Good antibacterial activity (e.g., less than about 4 μg/mL)) | – | –
10 | CC(=O)NCCNC(=O)c1cccc(-c2ccc(O)c3c2CC2CC4C(N(C)C)C(O)=C(C(N)=O)C(=O)C4(O)C(O)=C2C3=O)c1 (stereo not drawn) [S] | * (weak antibacterial activity (greater than about 8 μg/mL)) | * (concentrations of greater than 40 μM) | ** (values of 10-20%) | *** (Good antibacterial activity (e.g., less than about 4 μg/mL)) | – | –
11 | CN1CCN(Cc2ccc(-c3ccc(O)c4c3CC3CC5C(N(C)C)C(O)=C(C(N)=O)C(=O)C5(O)C(O)=C3C4=O)o2)CC1 (stereo not drawn) [AY] | * (weak antibacterial activity (greater than about 8 μg/mL)) | *** (concentrations of less than 10 μM) | *** (values greater than 20%) | *** (Good antibacterial activity (e.g., less than about 4 μg/mL)) | – | –
12 | CN(C)C1C(O)=C(C(N)=O)C(=O)C2(O)C(O)=C3C(=O)c4c(O)ccc(-c5cccc(CCCO)c5)c4CC3CC12 (stereo not drawn) [CM] | * (weak antibacterial activity (greater than about 8 μg/mL)) | *** (concentrations of less than 10 μM) | ** (values of 10-20%) | *** (Good antibacterial activity (e.g., less than about 4 μg/mL)) | – | –
13 | COCCNC(=O)c1cccc(-c2ccc(O)c3c2CC2CC4C(N(C)C)C(O)=C(C(N)=O)C(=O)C4(O)C(O)=C2C3=O)c1 (stereo not drawn) [L] | * (weak antibacterial activity (greater than about 8 μg/mL)) | * (concentrations of greater than 40 μM) | ** (values of 10-20%) | *** (Good antibacterial activity (e.g., less than about 4 μg/mL)) | – | –
14 | CN(C)C1C(O)=C(C(N)=O)C(=O)C2(O)C(O)=C3C(=O)c4c(O)ccc(-c5cccc(C(=O)NCCO)c5)c4CC3CC12 (stereo not drawn) [CK] | * (weak antibacterial activity (greater than about 8 μg/mL)) | ** (concentrations between 40 and 10 μM) | ** (values of 10-20%) | *** (Good antibacterial activity (e.g., less than about 4 μg/mL)) | – | –
15 | CN(C)CCNC(=O)c1ccc(O)c2c1CC1CC3C(N(C)C)C(O)=C(C(N)=O)C(=O)C3(O)C(O)=C1C2=O (stereo not drawn) [AH] | * (weak antibacterial activity (greater than about 8 μg/mL)) | ** (concentrations between 40 and 10 μM) | * (percentage inclusion values of less than 10%) | * (weak antibacterial activity (greater than about 8 μg/mL)) | – | –
